US9212168B2 (priority 2011, dated 2015)

Assays:
HCV genotype 1a replicon = HCV genotype 1a replicon assay (NS3 protease activity readout); assay type: cell-based, hepatitis C virus; details: for Genotype 1a: HCV genotype 1a replicon; for EC50: Hepatitis C virus, read-out: Genotype 1a, HCV genotype 1a replicon
Method in brief: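 EC50 values came from a 4-parameter robust fit of fluorescence (ex 340, em 509 nm) produced by NS3-specific protease in lysates, assayed with 15 μM FRET substrate for 20 min at 37° C, after 48 or 72 hours of compound exposure (0.5% DMSO) of Huh7.5-derived APC89 genotype 1a replicon cells.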

HCV genotype 1b replicon = HCV genotype 1b replicon assay (Renilla luciferase readout); assay type: cell-based, hepatitis C virus; details: for Genotype 1b: HCV genotype 1b replicon; for EC50: Hepatitis C virus, read-out: Genotype 1b
Method in brief: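 Reported as pEC50 derived from a 4-parameter fit of Renilla luciferase activity against concentration. Replicon cells (APC144, Huh7 background) were exposed to compound for 48 h in G418-free medium with final 0.5% DMSO, after seeding at 10,000 cells/well and 4 h adherence.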

SMILES	Genotype 1a (HCV genotype 1a replicon)	Genotype 1b (HCV genotype 1b replicon)	EC50 (HCV genotype 1a replicon) [nM]	EC50 (HCV genotype 1b replicon) [nM]
CNC(=O)N1CCC[C@@]1(C)C(=O)N1CCN(c2ccc(NC(=O)c3ccc(-c4ccc(-c5c[nH]c([C@@H]6C[C@H](C)CN6C(=O)[C@@H](NC(=O)OC)C(C)C)n5)cc4)c(OC(F)(F)F)c3)cn2)[C@H](C)C1 [Example 4-6]	D (D represents pEC50>10 (EC50<0.1 nM))	D (D represents pEC50>10 (EC50<0.1 nM))		
CNC(=O)N1CCN(c2ccc(C(=O)Nc3cc(OC(F)(F)F)c(-c4ccc(-c5c[nH]c([C@@H]6C[C@H](C)CN6C(=O)[C@@H](NC(=O)OC)C(C)C)n5)cc4)cc3F)cn2)[C@H](C)C1 [Example 1-1]	D (D represents pEC50>10 (EC50<0.1 nM))	D (D represents pEC50>10 (EC50<0.1 nM))		
CNC(=O)N1C[C@@H](C)N(c2ccc(C(=O)Nc3cc(C(F)(F)F)c(-c4ccc(-c5c[nH]c([C@@H]6C[C@H](C)CN6C(=O)[C@@H](NC(=O)OC)C(C)C)n5)cc4)cc3F)cn2)C[C@@H]1C [Example 1-8]	D (D represents pEC50>10 (EC50<0.1 nM))	D (D represents pEC50>10 (EC50<0.1 nM))		
COC(=O)NC(C(=O)N1CC(OC)CC1c1nc(-c2ccc(-c3cc(Cl)c(NC(=O)c4ccc(N5CCN(C(=O)C(C)(C)C)CC5C)nc4)cc3OC(F)(F)F)cc2)c[nH]1)C(C)OC (stereo not shown) [Example 16-3]	D (D represents pEC50>10 (EC50<0.1 nM))	D (D represents pEC50>10 (EC50<0.1 nM))		
COC(=O)N[C@H](C(=O)N1C[C@@H](C)C[C@H]1c1nc(-c2ccc(-c3cc(Cl)c(NC(=O)c4ccc(N5CCN(C(=O)C(C)(C)C)C[C@H]5C)nc4)cc3OC(F)(F)F)cc2)c(F)[nH]1)C(C)C [Example 5-8]			< 0.1	< 0.1
COC(=O)NC(C(=O)N1CC(OC)CC1c1nc(-c2ccc(-c3cc(F)c(NC(=O)c4ccc(N5CCN(C(=O)C(C)(C)CO)CC5C)nc4)cc3OC(F)(F)F)cc2)c[nH]1)C(C)OC (stereo not shown) [Example 16-13]	D (D represents pEC50>10 (EC50<0.1 nM))	D (D represents pEC50>10 (EC50<0.1 nM))		
COC(=O)N[C@H](C(=O)N1C[C@@H](OC)C[C@H]1c1nc(-c2ccc(-c3cc(Cl)c(NC(=O)c4ccc(N5CCN(C(=O)C(C)(C)CO)C[C@H]5C)nc4)cc3OC(F)(F)F)cc2)c(CO)[nH]1)C1CCOCC1 [Example 28-16]	D (D represents pEC50>10 (EC50<0.1 nM))	D (D represents pEC50>10 (EC50<0.1 nM))		
COC(=O)N[C@H](C(=O)N1C[C@@H](C)C[C@H]1c1nc(-c2ccc(-c3cc(Cl)c(NC(=O)c4ccc(N5CCN(C(=O)C(C)(C)C)C[C@H]5C)nc4)cc3OC(F)(F)F)cc2)c[nH]1)C(C)(C)O [Example 13-5]			< 0.1	< 0.1
COC(=O)N[C@H](C(=O)N1C[C@@H](OC)C[C@H]1c1nc(-c2ccc(-c3cc(F)c(NC(=O)c4ccc(N5CCN(C(=O)C(C)(C)CO)C[C@H]5C)nc4)cc3OC(F)(F)F)cc2)c[nH]1)C1CCOCC1 [Example 28-3]	D (D represents pEC50>10 (EC50<0.1 nM))	D (D represents pEC50>10 (EC50<0.1 nM))		
COC(=O)NC(C(=O)N1CC(C)CC1c1nc(-c2ccc(-c3ccc(NC(=O)c4ccc(N5CCN(C(=O)C(C)(C)CO)CC5C)nc4)cc3OC(F)(F)F)cc2)c[nH]1)C(C)O (stereo not shown) [Example 13-30]	D (D represents pEC50>10 (EC50<0.1 nM))	D (D represents pEC50>10 (EC50<0.1 nM))		
COC(=O)N[C@H](C(=O)N1C[C@@H](C)C[C@H]1c1nc(-c2ccc(-c3cc(Cl)c(NC(=O)c4ccc(N5CCN(C(=O)C(C)(C)CO)C[C@H]5C)nc4)cc3OC(F)(F)F)cc2)c[nH]1)[C@H](C)OC [Example 13-18]			< 0.1	< 0.1
COC(=O)N[C@H](C(=O)N1C[C@@H](C)C[C@H]1c1nc(-c2ccc(-c3ccc(C(=O)Nc4ccc(N5CCN(C(=O)C(C)(C)CO)C[C@H]5C)nc4)cc3OC(F)(F)F)cc2)c(Cl)[nH]1)C1CCOCC1 [Example 22-8]	D (D represents pEC50>10 (EC50<0.1 nM))	D (D represents pEC50>10 (EC50<0.1 nM))		
[2H]C([2H])([2H])C1(C([2H])([2H])[2H])CC1C(=O)N1CCN(c2ccc(C(=O)Nc3cc(OC(F)(F)F)c(-c4ccc(-c5c[nH]c([C@@H]6C[C@H](C)CN6C(=O)[C@@H](NC(=O)OC)C(C)C)n5)cc4)cc3F)cn2)[C@H](C)C1 (stereo partly shown) [Example 1-92]	D (D represents pEC50>10 (EC50<0.1 nM))	D (D represents pEC50>10 (EC50<0.1 nM))		
COC(=O)N[C@H](C(=O)N1C[C@@H](C)C[C@H]1c1nc(-c2ccc(-c3ccc(C(=O)Nc4ccc(N5CCN(C(=O)[C@H]6CC6(C)C)C[C@H]5C)nc4)cc3OC(F)(F)F)cc2)c[nH]1)C1CCOCC1 [Example 22-4]	D (D represents pEC50>10 (EC50<0.1 nM))	D (D represents pEC50>10 (EC50<0.1 nM))		
COC(=O)N[C@H](C(=O)N1C[C@@H](C)C[C@H]1c1nc(-c2ccc(-c3cc(Cl)c(NC(=O)c4ccc(N5CCN(C(=O)c6nccn6C)C[C@H]5C)nc4)cc3OC(F)(F)F)cc2)c[nH]1)C(C)C [Example 1-36]	D (D represents pEC50>10 (EC50<0.1 nM))	D (D represents pEC50>10 (EC50<0.1 nM))		
COC(=O)N[C@H](C(=O)N1C[C@@H](OC)C[C@H]1c1nc(-c2ccc(-c3cc(Cl)c(NC(=O)c4ccc(N5CCN(C(=O)[C@]67C[C@H]6CCN7)C[C@H]5C)nc4)cc3OC(F)(F)F)cc2)c[nH]1)C(C)C [Example 27-5]	D (D represents pEC50>10 (EC50<0.1 nM))	D (D represents pEC50>10 (EC50<0.1 nM))		
COC(=O)N[C@H](C(=O)N1C[C@@H](C)C[C@H]1c1nc(-c2ccc(-c3cc(Cl)c(NC(=O)c4ccc(N5CCN(C(=O)C6CC(O)C6)C[C@H]5C)nc4)cc3OC(F)(F)F)cc2)c[nH]1)C(C)C (stereo partly shown) [Example 12-47]			< 0.1	< 0.1
COC(=O)NC(C(=O)N1C[C@@H](C)C[C@H]1c1nc(-c2ccc(-c3ccc(C(=O)Nc4ccc(N5CCN(C(=O)C(C)(C)C)C[C@H]5C)nc4)c(F)c3OC(F)(F)F)cc2)c[nH]1)C1CCOCC1 (stereo partly shown) [Example 25-2]			< 0.1	< 0.1
COC(=O)N[C@H](C(=O)N1C[C@@H](C)C[C@H]1c1nc(-c2ccc(-c3cc(Cl)c(NC(=O)c4ccc(N5CCN(C(=O)C(C)(C)CO)C[C@H]5C)nc4)cc3OC(F)(F)F)cc2)c(CO)[nH]1)C1CCOCC1 [Example 20-3]	D (D represents pEC50>10 (EC50<0.1 nM))	D (D represents pEC50>10 (EC50<0.1 nM))		
COC[C@H]1C[C@@H](c2nc(-c3ccc(-c4cc(Cl)c(C(=O)Nc5ccc(N6CCN(C(=O)C(C)(C)C)C[C@H]6C)nc5)cc4OC(F)(F)F)cc3)c[nH]2)N(C(=O)[C@@H](NC(=O)OC)C2CCOCC2)C1 [24-6]	D (D represents pEC50>10 (EC50<0.1 nM))	D (D represents pEC50>10 (EC50<0.1 nM))		
COC(=O)NC(C(=O)N1C[C@@H](C)C[C@H]1c1nc(-c2ccc(-c3cc(Cl)c(NC(=O)c4ccc(N5CCN(C(=O)C(C)(C)C)C[C@H]5C)nc4)cc3OC(F)(F)F)cc2)c[nH]1)C1CCC(=O)CC1 (stereo partly shown) [Example 13-35]			< 0.1	< 0.1
COC(=O)N[C@H](C(=O)N1C[C@@H](OC)C[C@H]1c1nc(-c2ccc(-c3cc(Cl)c(C(=O)Nc4ccc(N5CCN(C(=O)C(C)(C)C)C[C@H]5C)nc4)cc3OC(F)(F)F)cc2)c[nH]1)C1CCOCC1 [Example 22-16]	D (D represents pEC50>10 (EC50<0.1 nM))	D (D represents pEC50>10 (EC50<0.1 nM))		
COC(=O)N[C@H](C(=O)N1C[C@@H](O)C[C@H]1c1nc(-c2ccc(-c3ccc(NC(=O)c4ccc(N5CCN(C(=O)[C@]6(C)CCCN6C(=O)OC)C[C@H]5C)nc4)cc3)cc2)c[nH]1)C(C)C [Example 5]			0.1 to 1	< 0.1
COC(=O)N[C@H](C(=O)N1C[C@@H](OC)C[C@H]1c1nc(-c2ccc(-c3cc(Cl)c(NC(=O)c4ccc(N5CCN(C(=O)[C@H]6CC6(C)C)C[C@H]5C)nc4)cc3OC(F)(F)F)cc2)c[nH]1)C1CCOCC1 [Example 28-11]	D (D represents pEC50>10 (EC50<0.1 nM))	D (D represents pEC50>10 (EC50<0.1 nM))		
COC(=O)N[C@H](C(=O)N1C[C@@H](OC)C[C@H]1c1nc(-c2ccc(-c3cc(Cl)c(NC(=O)c4ccc(N5CCN(C(=O)C(C)(C)C)C[C@H]5C)nc4)cc3OC(F)(F)F)cc2)c[nH]1)C(C)(C)O [Example 16-1]	D (D represents pEC50>10 (EC50<0.1 nM))	D (D represents pEC50>10 (EC50<0.1 nM))		
COC(=O)NC(C(=O)N1CC(C)CC1c1nc(-c2ccc(-c3cc(Cl)c(NC(=O)c4ccc(N5CCN(C(=O)C6CC6(F)F)CC5C)nc4)cc3C(F)(F)F)cc2)c[nH]1)C(C)C (mixture of isomers) [Example 1-55]	D (D represents pEC50>10 (EC50<0.1 nM))	D (D represents pEC50>10 (EC50<0.1 nM))		
COC(=O)N[C@H](C(=O)N1[C@H](c2nc(-c3ccc(-c4ccc(C(=O)Nc5ccc(N6CCN(C(=O)C7CC7(C)C)C[C@H]6C)nc5)cc4OC(F)(F)F)cc3)c[nH]2)C[C@@H]2CCCC[C@@H]21)C(C)C (stereo partly shown) [Example 6-12]			0.1 to 1	< 0.1
COC(=O)N[C@H](C(=O)N1C[C@@H](C)C[C@H]1c1nc(-c2ccc(-c3cc(Cl)c(NC(=O)c4ccc(N5CCN(C(=O)C(C)(C)CO)C[C@H]5C)nc4)cc3OC(F)(F)F)cc2)c[nH]1)C(C)(C)O [Example 13-16]			< 0.1	< 0.1
COC(=O)N[C@H](C(=O)N1C[C@@H](C)C[C@H]1c1nc(-c2ccc(-c3cc(Cl)c(C(=O)Nc4ccc(N5CCN(C(=O)C(C)(C)CO)C[C@H]5C)nc4)cc3OC(F)(F)F)cc2)c(Cl)[nH]1)C1CCOCC1 [Example 22-9]			< 0.1	< 0.1
